{"source": "ChEMBL document CHEMBL5360564", "about": "“Small molecule LpxC inhibitors against gram-negative bacteria: Advances and future perspectives” (Eur J Med Chem, 2023)", "key": {"Escherichia coli [1]": {"system": "Escherichia coli", "test": "Antibacterial activity against Escherichia coli MB4926 assessed as bacterial growth inhibition", "assay_type": "functional"}, "Escherichia coli [2]": {"system": "Escherichia coli", "test": "Antibacterial activity against Escherichia coli MB5500 assessed as bacterial growth inhibition", "assay_type": "functional"}, "Escherichia coli [3]": {"system": "Escherichia coli", "test": "Antibacterial activity against wild type Escherichia coli W3110 assessed as bacterial growth inhibition measured after 22 hrs by MTT assay", "assay_type": "functional"}, "Escherichia coli [4]": {"system": "Escherichia coli", "test": "Antibacterial activity against Escherichia coli D21 assessed as bacterial growth inhibition measured after 20 hrs by checkerboard method", "assay_type": "functional"}, "[5]": {"molecular_target": "T1, UDP-3-O-acyl-N-acetylglucosamine deacetylase (Escherichia coli K-12, UniProt P0A725)", "T1 sequence (P0A725 whole entry)": "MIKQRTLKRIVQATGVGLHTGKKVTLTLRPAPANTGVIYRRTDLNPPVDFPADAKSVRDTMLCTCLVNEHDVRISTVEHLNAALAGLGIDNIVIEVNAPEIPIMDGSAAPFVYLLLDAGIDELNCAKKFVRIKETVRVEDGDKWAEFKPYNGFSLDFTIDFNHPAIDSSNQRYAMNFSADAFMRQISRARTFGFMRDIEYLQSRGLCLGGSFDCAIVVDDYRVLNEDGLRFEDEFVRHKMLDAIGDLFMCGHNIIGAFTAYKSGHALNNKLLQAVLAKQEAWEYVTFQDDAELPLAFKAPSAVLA", "test": "Inhibition of Escherichia coli LpxC assessed as inhibition constant measured after 30 mins by fluorescence based microplate assay"}, "[6]": {"molecular_target": "T2, UDP-3-O-acyl-N-acetylglucosamine deacetylase (Pseudomonas aeruginosa, UniProt B5ATN6)", "T2 sequence (B5ATN6 whole entry)": "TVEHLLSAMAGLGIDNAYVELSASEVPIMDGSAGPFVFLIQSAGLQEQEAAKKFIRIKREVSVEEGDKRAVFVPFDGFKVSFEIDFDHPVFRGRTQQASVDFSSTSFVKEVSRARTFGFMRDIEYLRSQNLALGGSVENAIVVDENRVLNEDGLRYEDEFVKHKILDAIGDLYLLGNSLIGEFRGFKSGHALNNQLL", "test": "Inhibition of recombinant Pseudomonas aeruginosa LpxC expressed in Escherichia coli"}, "Pseudomonas aeruginosa [7]": {"system": "Pseudomonas aeruginosa", "test": "Antibacterial activity against Pseudomonas aeruginosa clinical isolate assessed as bacterial growth inhibition by microdilution assay", "assay_type": "functional"}, "[8]": {"molecular_target": "T1, UDP-3-O-acyl-N-acetylglucosamine deacetylase", "test": "Inhibition of Escherichia coli LpxC"}, "Escherichia coli [9]": {"system": "Escherichia coli", "test": "Antibacterial activity against Escherichia coli assessed as bacterial growth inhibition two-fold microdilution", "assay_type": "functional"}, "Klebsiella pneumoniae": {"system": "Klebsiella pneumoniae", "test": "Antibacterial activity against Klebsiella pneumoniae assessed as bacterial growth inhibition two-fold microdilution", "assay_type": "functional"}, "Escherichia coli [10]": {"system": "Escherichia coli", "test": "Antibacterial activity against Escherichia coli CMCC 25922 assessed as bacterial growth inhibition measured after 22 hrs", "assay_type": "functional"}, "Escherichia coli [11]": {"system": "Escherichia coli", "test": "Antibacterial activity against Escherichia coli CMCC 44568 assessed as bacterial growth inhibition measured after 22 hrs", "assay_type": "functional"}, "Pseudomonas aeruginosa [12]": {"system": "Pseudomonas aeruginosa", "test": "Antibacterial activity against Pseudomonas aeruginosa CMCC 27853 assessed as bacterial growth inhibition measured after 22 hrs", "assay_type": "functional"}, "Pseudomonas aeruginosa [13]": {"system": "Pseudomonas aeruginosa", "test": "Antibacterial activity against Pseudomonas aeruginosa CMCC 10104 assessed as bacterial growth inhibition measured after 22 hrs", "assay_type": "functional"}, "Escherichia coli [14]": {"system": "Escherichia coli", "test": "Antibacterial activity against Escherichia coli DH5alpha assessed as bacterial growth inhibition measured after 18 hrs by broth microdilution assay", "assay_type": "functional"}, "Pseudomonas aeruginosa [15]": {"system": "Pseudomonas aeruginosa", "test": "Antibacterial activity against Pseudomonas aeruginosa PAO1 assessed as bacterial growth inhibition measured after 18 hrs by broth microdilution assay", "assay_type": "functional"}, "Pseudomonas aeruginosa [16]": {"system": "Pseudomonas aeruginosa", "test": "Antibacterial activity against Pseudomonas aeruginosa PA14 assessed as bacterial growth inhibition measured after 18 hrs by broth microdilution assay", "assay_type": "functional"}, "Pseudomonas aeruginosa [17]": {"system": "Pseudomonas aeruginosa", "test": "Antibacterial activity against Pseudomonas aeruginosa HER 1018 assessed as bacterial growth inhibition by twofold dilution method", "assay_type": "functional"}, "[18]": {"molecular_target": "T3, UDP-3-O-acyl-N-acetylglucosamine deacetylase (Aquifex aeolicus (strain VF5), UniProt O67648)", "T3 sequence (O67648 whole entry)": "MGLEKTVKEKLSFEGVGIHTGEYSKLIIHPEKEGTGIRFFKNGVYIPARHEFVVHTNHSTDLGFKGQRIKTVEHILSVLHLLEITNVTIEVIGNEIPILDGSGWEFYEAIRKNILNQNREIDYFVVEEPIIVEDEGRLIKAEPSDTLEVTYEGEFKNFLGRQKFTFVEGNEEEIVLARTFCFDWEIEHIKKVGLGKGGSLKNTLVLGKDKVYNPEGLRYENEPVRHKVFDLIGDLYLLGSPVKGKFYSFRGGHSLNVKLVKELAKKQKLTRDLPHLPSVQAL", "test": "Inhibition of Aquifex aeolicus LpxC transformed in Escherichia coli BL21(DE3) pLysS cells"}}}
{"smiles": "CCCc1cc(C2=N[C@@H](C(=O)NO)CO2)cc(OC)c1OC", "values": [{"measurement": "MIC", "setting": "Escherichia coli [1]", "value": 1, "unit": "µg/mL"}, {"measurement": "MIC", "setting": "Escherichia coli [2]", "value": 1, "unit": "µg/mL"}]}
{"smiles": "C[C@@H](O)[C@H](NC(=O)c1ccc(C#CC#Cc2ccccc2)cc1)C(=O)NO", "values": [{"measurement": "MIC", "setting": "Escherichia coli [3]", "value": 0.05, "unit": "µg/mL"}]}
{"smiles": "O=C(NO)[C@@H](Cc1ccc2ccccc2c1)NS(=O)(=O)c1ccc2ccccc2c1", "values": [{"measurement": "MIC", "setting": "Escherichia coli [4]", "value": 2, "unit": "µg/mL"}]}
{"smiles": "O=C(NO)C1(COc2ccc(C#Cc3ccc(CN4CCOCC4)cc3)cc2)CCOCC1", "values": [{"measurement": "Ki", "setting": "[5]", "value": 352, "unit": "nM"}]}
{"smiles": "CC(C)(N)[C@H](NC(=O)c1ccc(C#CC#CC2CC2)cc1)C(=O)NO", "values": [{"measurement": "IC50", "setting": "[6]", "value": 0.62, "unit": "nM"}, {"measurement": "MIC", "setting": "Pseudomonas aeruginosa [7]", "value": 0.16, "unit": "µg/mL"}]}
{"smiles": "C[C@H](O)c1nccn1Cc1cc(-c2ccc(C#C[C@@H]3[C@H]4CN(CCCC(=O)O)C[C@@H]34)cc2)on1", "values": [{"measurement": "IC50", "setting": "[8]", "value": 101, "unit": "nM"}, {"measurement": "MIC", "setting": "Escherichia coli [9]", "value": 2, "unit": "µg/mL"}, {"measurement": "MIC", "setting": "Klebsiella pneumoniae", "value": 2, "unit": "µg/mL"}]}
{"smiles": "N=C(N)N/N=C/c1ccc(C#Cc2ccc(Cl)cc2)cc1", "values": [{"measurement": "MIC", "setting": "Escherichia coli [10]", "value": 2, "unit": "µg/mL"}, {"measurement": "MIC", "setting": "Escherichia coli [11]", "value": 2, "unit": "µg/mL"}, {"measurement": "MIC", "setting": "Pseudomonas aeruginosa [12]", "value": "> 128", "unit": "µg/mL"}, {"measurement": "MIC", "setting": "Pseudomonas aeruginosa [13]", "value": 1, "unit": "µg/mL"}]}
{"smiles": "CC(C)(N)[C@H](NC(=O)c1ccc(C#CC#C[C@H](O)CO)cc1)C(=O)NO", "values": [{"measurement": "IC50", "setting": "[6]", "value": 19, "unit": "nM"}, {"measurement": "MIC", "setting": "Pseudomonas aeruginosa [7]", "value": 3.5, "unit": "µg/mL"}]}
{"smiles": "O=c1ccn([C@@H]2O[C@H](CO/N=C/c3ccc(O)c(O)c3O)[C@@H](O)[C@H]2O)c(=O)[nH]1", "values": [{"measurement": "IC50", "setting": "[8]", "value": 27000, "unit": "nM"}]}
{"smiles": "COC1([C@H](NC(=O)c2ccc(C#CC#CCCO)cc2)C(=O)NO)CS(=O)(=O)C1", "values": [{"measurement": "MIC", "setting": "Pseudomonas aeruginosa [7]", "value": 2.3, "unit": "µg/mL"}]}
{"smiles": "C[C@@H](O)[C@](C)(NC(=O)c1ccc(C#CC#Cc2ccc(N)cc2)cc1)C(=O)NO", "values": [{"measurement": "MIC", "setting": "Escherichia coli [3]", "value": 0.24, "unit": "µg/mL"}]}
{"smiles": "CC(C)(N)[C@H](NC(=O)c1ccc(C#CC#C[C@@H](O)CO)cc1)C(=O)NO", "values": [{"measurement": "IC50", "setting": "[6]", "value": 12, "unit": "nM"}, {"measurement": "MIC", "setting": "Pseudomonas aeruginosa [7]", "value": 8.8, "unit": "µg/mL"}]}
{"smiles": "N=C(N)N/N=C/c1ccc(C#CC#Cc2ccccc2Cl)cc1", "values": [{"measurement": "MIC", "setting": "Escherichia coli [10]", "value": 8, "unit": "µg/mL"}, {"measurement": "MIC", "setting": "Escherichia coli [11]", "value": 64, "unit": "µg/mL"}, {"measurement": "MIC", "setting": "Pseudomonas aeruginosa [12]", "value": "> 128", "unit": "µg/mL"}, {"measurement": "MIC", "setting": "Pseudomonas aeruginosa [13]", "value": 4, "unit": "µg/mL"}]}
{"smiles": "O=C(CO/N=C/c1ccc(O)c(O)c1O)NC[C@H]1O[C@@H](n2ccc(=O)[nH]c2=O)[C@H](O)[C@@H]1O", "values": [{"measurement": "IC50", "setting": "[8]", "value": 120000, "unit": "nM"}]}
{"smiles": "O=C(C[C@@H]1CN(c2ccc(C#Cc3ccccc3)cc2)CO1)NO", "values": [{"measurement": "MIC", "setting": "Escherichia coli [14]", "value": 1.25, "unit": "µM"}, {"measurement": "MIC", "setting": "Pseudomonas aeruginosa [15]", "value": 1.25, "unit": "µg/mL"}, {"measurement": "MIC", "setting": "Pseudomonas aeruginosa [16]", "value": 10, "unit": "µg/mL"}]}
{"smiles": "CS(=O)(=O)[C@](F)(CCc1ccc(-c2ccccc2)cc1)C(=O)NO", "values": [{"measurement": "MIC", "setting": "Pseudomonas aeruginosa [17]", "value": 12.5, "unit": "µg/mL"}]}
{"smiles": "CCCCCC(=O)O[C@@H]1[C@@H](CP(C)(=O)O)CO[C@H](CO)[C@H]1O", "values": [{"measurement": "IC50", "setting": "[18]", "value": 192, "unit": "nM"}]}
